# Assay results taken from US12485110B2, “Use of ergothioneine for extending lifespan or improving healthspan” (NANJING NUTRABUILDING BIO-TECH CO., LTD., priority 2022, dated 2025).
# Legend:
# Type in all cases: in vivo
# C. elegans [1] = test: Growth and development (growth and toxicity) assay
# Text: C. elegans was used in this study because it has advantages including having all the physiological properties of an animal, the ability to replicate human diseases, and a fast life cycle. The body of C. elegans is encased in a selectively permeable cuticle that only permits some compounds to be absorbed efficiently through the skin, so the most reliable mechanism for delivering compounds to the worms is through ingestion. Water-soluble compounds permeate the media and food and are readily taken up by the worms.
# Making culturing plates with ergothioneine: C. elegans is usually grown in the laboratory using E. coli as a food source. Nematode Growth Medium (NGM) plates have been prepared by aseptically pouring NGM agar into petri plates. Ergothioneine was dissolved in water to make a working solution of 0.5 M and then mixed with E. coli liquid culture before seeding on NGM agar plates. The seeding spots were dried slowly, allowing ergothioneine to diffuse into the food bacteria and the agar for at least 24 hours before worms are introduced. The indicated ergothioneine dosages (0, 640 nM, 3.2 μM, 16 μM, 80 μM, 400 μM, 2 mM, and 10 mM) are based on the total volume of the plates.
# High-resolution imaging and automated detection were used to precisely measure the growth rate of C. elegans worms from hatching to the first day of adulthood (total of 4 days). The C. elegans growth and development assay is highly sensitive and widely used in toxicology studies. Performing this test over a range of doses helps to identify a set of doses that have a physiological impact and exclude dose ranges that are likely too toxic to benefit lifespan.
# C. elegans [2] = test: Movement and healthspan analysis (worm activity, morphology, circularity)
# Text: Worm movement was tracked from the images acquired by the ALM during the lifespan assay. Worm size and movement features were extracted and analyzed using custom software.
# To measure healthspan, active worms were identified using the ALM scanner images from the lifespan assay (see Example 2). The worms' spatial location on the plate and their morphology were quantified throughout their lifespan to assess healthspan.
# Worm Activity serves as a proxy for animal health. Changes in spatial distribution of the worms between time points is used to derive aggregate movement for the population over time. Worm Activity is described by two complementary measurements of aggregate movement, Centroid Distance and Spatial Distribution: • Centroid Distance calculates a geometric center for each individual worm, and then measures the minimum collective distance that a group of worms moved between time points. It achieves measurement of the changes in spatial distribution between time-points. • Spatial Distribution uses changes in worm contours between time points to measure the changes in the spatial distribution of the worms' bodies. The normalized distribution of these distances in the population provides a measure of how much the group of worms altered their positions and posture on the plate between two time-points.
# For both of these Activity metrics, a plot with higher numbers indicates good health, and all measures are normalized to fall between 0 and 1.
# Worm morphology is measured from the worm contours detected in the images. In the process of aging, worms become shorter and stouter over time and their shape is an indicator of their overall health and biological age. The Length is calculated from the central spline fitted to the worm contour and Width is measured from each worm's widest point. The worms' posture also changes with age as they lose the ability to maintain an elongated position. Average Circularity measures how close the shape and posture come to being enclosed by a circle.
# Each of these measures are obtained by averaging data for all active worms detected on a plate, then averaging across different replicate plates of the same condition. All measurements are based on worms that are still alive and moving at the time of quantification. All measures start when worms are placed on the scanner at day 3 of adulthood.
# Average Circularity. The Average Circularity Assay indicates worm heath by describing how closely the shape and posture of the worms is enclosed within a circle. Healthy, active worms maintain an elongated, albeit sinusoidal posture. As unhealthy and aged worms lose muscle function, they increasingly adopt a curled, bunched, or folded state in addition to a stout and wrinkled morphology.
# C. elegans [3] = test: Longevity-focused pathway analysis of differentially expressed genes
# Text: This example describes identification of cellular pathways that are most likely modulated by treatment with Ergothioneine. To accomplish this, the genes differentially expressed after Ergothioneine treatment were first mapped to core established longevity pathways from the literature. Then the mapping was expanded to intersecting and supporting pathways. This placed the transcriptomic data within the context of well-characterized biological pathways, particularly several related to longevity.
# Differentially expressed genes (DEGs) were mapped to known physiological pathways and then examined for coherent linkages between pathways related to longevity. These pathways were drawn from WormBase, KEGG, and other published databases and literature. For each condition, the DEGs were filtered on a more relaxed P value cutoff than the initial differential gene expression to capture broad evidence for a pathway from many small changes as opposed to highly significant individual genes of interest. For visualization, pathway genes were given a score based on the fold change weighted by the log of the P value, and this score was color mapped by magnitude and direction to produce the pathway diagram in FIG. 11.
# FIG. 11 is a summary of pathway mapping to recognized aging-related pathways for Ergothioneine treatment. Colored score increments indicate degree of up-(red) or down-(blue) regulation weighted by the log of the P value such that each increment approximates one inverse log of P value. Uncolored objects indicate components that were not detected in the data. Top red indicates P value<0.0001 and so on. Solid lines indicate direct pathway connections and dashed lines indicate indirect or multi-step connections. Where lists of differentially expressed genes have been condensed into a module, the number of genes is indicated.
# Starting with the canonical longevity pathways, the intersections with supporting pathways was then examined to expand the pool of evidence of whether a pathway is impacted by the treatment.
# [4] = Ergothioneine treatment, pathway mapping FIG. 11
structure (smiles),measurement,setting,value
"C[N+](C)(C)[C@@H](Cc1c[nH]c(=S)[nH]1)C(=O)[O-] [Ergo, Ergothioneine]",Number and size of worms (FIG. 1),"C. elegans [1]; 16 μM and 400 μM, L4 and day 1 adult",comparable number and size
same,Number of worms (FIG. 1),"C. elegans [1]; 10 mM, L4 and day 1 adult stages",less worms
same,Size of young adults (FIG. 2),"C. elegans [1]; 10 mM, day 1 adult stage",smaller than normal
same,"Growth rate (worm size, FIG. 2)","C. elegans [1]; concentrations up to 2 mM, day 1 adult stage",largely unaffected
same,"Growth rate (worm size, FIG. 2)","C. elegans [1]; concentrations up to 10 mM, L4 stage",largely unaffected
same,"Aggregate movement (Centroid Distance and Spatial Distribution, FIGS. 5A-5B)","C. elegans [2]; 5 mM, over the duration of lifespan",more vigorous movement
same,Average circularity (FIG. 7),"C. elegans [2]; ergothioneine-treated worms vs control, peaking at around 16 days",only slight differences
same,"Worm morphology (length, width, area, FIGS. 6A-6C)","C. elegans [2]; up to the 5 mM dosage, over the lifespan",did not produce detectable changes in morphology
same,superoxide dismutase (SOD-2) expression,C. elegans [3]; Ergo treatment,slightly decreased expression
same,cpr-1 expression,"C. elegans [3]; Ergothioneine treatment, autophagy",significantly downregulated
same,daf-2 expression,C. elegans [3]; [4],slightly downregulated
same,daf-16 expression,C. elegans [3]; [4],slight downregulation
same,ife-2 (eIF4E) expression,C. elegans [3]; [4],downregulated
same,mtl-1 expression,C. elegans [3]; [4],strongly downregulated
same,skn-1 expression,"C. elegans [3]; Ergothioneine treatment, stress response",slight downregulation
